Measurements taken from BindingDB's records for doi:10.1021/jm300416h (Taiho Pharmaceutical, 2012).

Assay: Inhibition of human dUTPase-mediated cell proliferation in HeLa S3 cells after 72 hrs by crystal violet staining

| Compound | IC50 |
| --- | --- |
| C[C@@H](NS(=O)(=O)CC/C=C/Cn1ccc(=O)[nH]c1=O)c1cccc(OCC2CC2)c1 | 38.2 µM |

Assay: Inhibition of human dUTPase-mediated cell proliferation in HeLa S3 cells assessed as compound concentration required to reduce 50% of 1 uM of FdUrd T/C after 24 hrs by crystal violet staining

| Compound | EC50 |
| --- | --- |
| CC(C)(NS(=O)(=O)c1cccc(OCC(F)F)c1)c1ccc(Cn2ccc(=O)[nH]c2=O)cc1 | 0.1 µM |
| COc1cccc(S(=O)(=O)NC(C)(C)CC/C=C/Cn2ccc(=O)[nH]c2=O)c1 | 0.45 µM |
| CC(C)(CC/C=C/Cn1ccc(=O)[nH]c1=O)NS(=O)(=O)c1cccc(OCC(F)F)c1 | 0.049 µM |
| C[C@@H](NS(=O)(=O)c1ccc(Cn2ccc(=O)[nH]c2=O)cc1)c1cccc(OCC2CC2)c1 | 0.93 µM |
| C[C@@H](NS(=O)(=O)CC/C=C/Cn1ccc(=O)[nH]c1=O)c1cccc(OC2CCCC2)c1 | 0.15 µM |
| C[C@@H](NS(=O)(=O)c1ccc(Cn2ccc(=O)[nH]c2=O)cc1)c1cccc(OC2CCCC2)c1 | 0.61 µM |
| C[C@@H](NS(=O)(=O)CC/C=C/Cn1ccc(=O)[nH]c1=O)c1cccc(OCC2CC2)c1 | 0.066 µM |
| CC(C)(CC/C=C/Cn1ccc(=O)[nH]c1=O)NS(=O)(=O)c1ccccc1 | 2.6 µM |
| CC(C)(CCCOCn1ccc(=O)[nH]c1=O)NS(=O)(=O)c1ccccc1 | 5.1 µM |
| C[C@@H](NS(=O)(=O)c1ccc(Cn2ccc(=O)[nH]c2=O)cc1)c1cccc(OCC(F)F)c1 | 0.61 µM |
| CC(C)(NS(=O)(=O)c1cccc(OC2CCCC2)c1)c1ccc(Cn2ccc(=O)[nH]c2=O)cc1 | 0.12 µM |
| CC(C)(CC/C=C/Cn1ccc(=O)[nH]c1=O)NS(=O)(=O)c1cccc(OC2CCCC2)c1 | 0.2 µM |
| CC(C)(NS(=O)(=O)c1cccc(OCC2CC2)c1)c1ccc(Cn2ccc(=O)[nH]c2=O)cc1 | 0.14 µM |
| CC(C)(NS(=O)(=O)c1ccccc1)c1ccc(Cn2ccc(=O)[nH]c2=O)cc1 | 2.6 µM |
| COc1cccc(S(=O)(=O)NC(C)(C)c2ccc(Cn3ccc(=O)[nH]c3=O)cc2)c1 | 3.13 µM |
| C[C@@H](NS(=O)(=O)CC/C=C/Cn1ccc(=O)[nH]c1=O)c1cccc(OCC(F)F)c1 | 0.096 µM |
